Like-named read-outs stand apart in the source and are kept apart here.
Experiments:
LoVo-Dox = assay: Inhibition of cells growth by colorimetric (SRB) assay, LoVo-Dox; conditions: for CC50: read-out: LOVO-DOX LC50, SRB assay, 48 hours exposure
Method in brief: (§1)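 Human tumour cells seeded at 5×10^3/well in RPMI 1640 10% FBS, attached 18 h, then exposed 48 h to samples at 10 to 10^−8 μg/ml in DMSO/EtOH/PBS (0.5:0.5:99). Growth read by SRB staining after TCA fixation, OD 490 nm, triplicate wells; GI, TGI and LC derived.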

A-549 = assay: Inhibition of cells growth by colorimetric (SRB) assay, A-549; conditions: for CC50: read-out: A-549 LC50, SRB assay, 48 hours exposure
Method in brief: as §1

DU-145 = assay: Inhibition of cells growth by colorimetric (SRB) assay, DU-145
Method in brief: as §1

LoVo = assay: Inhibition of cells growth by colorimetric (SRB) assay, LoVo; conditions: for CC50: read-out: LOVO LC50, SRB assay, 48 hours exposure
Method in brief: as §1

HeLa = assay: Inhibition of cells growth by colorimetric (SRB) assay, HeLa; as to HELA TGI: unit not given here
Method in brief: as §1

SK-BR-3 = assay: Inhibition of cells growth by colorimetric (SRB) assay, SK-BR-3; conditions: for GI50 / CC50: Homo sapiens, SK-BR-3, 48 h; for GI50: read-out: SK-BR-3 GI50, SRB assay, 48 hours exposure; for CC50: read-out: SK-BR-3 LC50, SRB assay, 48 hours exposure; for SK-BR-3 TGI: SRB assay, 48 hours exposure
Method in brief: as §1

IGROV-ET = assay: Inhibition of cells growth by colorimetric (SRB) assay, IGROV-ET; conditions: for CC50: read-out: IGROV-ET LC50, SRB assay, 48 hours exposure
Method in brief: as §1

PANC-1 = assay: Inhibition of cells growth by colorimetric (SRB) assay, PANC-1; conditions: for CC50: read-out: PANC-1 LC50, SRB assay, 48 hours exposure
Method in brief: as §1

IGROV-1 = assay: Inhibition of cells growth by colorimetric (SRB) assay, IGROV-1; conditions: for CC50: read-out: IGROV LC50, SRB assay, 48 hours exposure
Method in brief: as §1

LNCaP = assay: Inhibition of cells growth by colorimetric (SRB) assay, LNCaP
Method in brief: as §1

HT-29 = assay: Inhibition of cells growth by colorimetric (SRB) assay, HT-29; conditions: for CC50: read-out: HT-29 LC50, SRB assay, 48 hours exposure
Method in brief: as §1

HeLa-APL = assay: Inhibition of cells growth by colorimetric (SRB) assay, HeLa-APL
Method in brief: as §1

SK-MEL-28 = assay: Inhibition of cells growth by colorimetric (SRB) assay, SK-MEL-28; conditions: for CC50: read-out: MEL-28 LC50, SRB assay, 48 hours exposure
Method in brief: as §1

K-562 = assay: Inhibition of cells growth by colorimetric (SRB) assay, K-562; conditions: for CC50: read-out: K-562 LC50, SRB assay, 48 hours exposure
Method in brief: as §1

Cl.Nc1nccc(-c2c3c(Cl)ccnc3n3c(N)nccc23)n1 [Compound 83]
GI50 (LoVo-Dox; Homo sapiens, 48 h, read-out: LOVO-DOX GI50, SRB assay, 48 hours exposure): 803 nM
CC50 (LoVo-Dox; Homo sapiens, 48 h): 17800 nM
LOVO-DOX TGI (LoVo-Dox; SRB assay, 48 hours exposure): 1.72E−06
GI50 (A-549; Homo sapiens, A549, 48 h, read-out: A-549 GI50, SRB assay, 48 hours exposure): 757 nM
CC50 (A-549; Homo sapiens, A549, 48 h): 8660 nM
A-549 TGI (A-549; SRB assay, 48 hours exposure): 1.57E−06
GI50 (DU-145; Homo sapiens, DU-145, 48 h, read-out: DU-145 GI50, SRB assay, 48 hours exposure): 621 nM
CC50 (DU-145; Homo sapiens, DU-145, 48 h, read-out: DU-145 LC50, SRB assay, 48 hours exposure): 8320 nM
DU-145 TGI (DU-145; SRB assay, 48 hours exposure): 1.49E−06
GI50 (LoVo; Homo sapiens, LoVo, 48 h, read-out: LOVO GI50, SRB assay, 48 hours exposure): 471 nM
CC50 (LoVo; Homo sapiens, LoVo, 48 h): 2090 nM
LOVO TGI (LoVo; SRB assay, 48 hours exposure): 9.90E−07
GI50 (HeLa; Homo sapiens, HeLa, 48 h, read-out: HELA GI50, SRB assay, 48 hours exposure): 47.8 nM
HELA TGI (HeLa; SRB assay, 48 hours exposure): 1.38E−07
GI50 (SK-BR-3): 575 nM
CC50 (SK-BR-3): 1920 nM
SK-BR-3 TGI (SK-BR-3): 1.05E−06
GI50 (IGROV-ET; Homo sapiens, 48 h, read-out: IGROV-ET GI50, SRB assay, 48 hours exposure): 1080 nM
CC50 (IGROV-ET; Homo sapiens, 48 h): 26000 nM
IGROV-ET TGI (IGROV-ET; SRB assay, 48 hours exposure): 2.29E−06
GI50 (PANC-1; Homo sapiens, PANC-1, 48 h, read-out: PANC-1 GI50, SRB assay, 48 hours exposure): 1950 nM
CC50 (PANC-1; Homo sapiens, PANC-1, 48 h): 26000 nM
PANC-1 TGI (PANC-1; SRB assay, 48 hours exposure): 1.07E−05
GI50 (IGROV-1; Homo sapiens, IGROV-1, 48 h, read-out: IGROV GI50, SRB assay, 48 hours exposure): 998 nM
CC50 (IGROV-1; Homo sapiens, IGROV-1, 48 h): 26000 nM
IGROV TGI (IGROV-1; SRB assay, 48 hours exposure): 3.17E−06
GI50 (LNCaP; Homo sapiens, LNCaP, 48 h, read-out: LN-caP GI50, SRB assay, 48 hours exposure): 424 nM
CC50 (LNCaP; Homo sapiens, LNCaP, 48 h, read-out: LN-caP LC50, SRB assay, 48 hours exposure): 1520 nM
LN-caP TGI (LNCaP; SRB assay, 48 hours exposure): 8.03E−07
GI50 (HT-29; Homo sapiens, HT-29, 48 h, read-out: HT-29 GI50, SRB assay, 48 hours exposure): 1370 nM
CC50 (HT-29; Homo sapiens, HT-29, 48 h): 26000 nM
HT-29 TGI (HT-29; SRB assay, 48 hours exposure): 3.90E−06
GI50 (HeLa-APL; Homo sapiens, 48 h, read-out: HELA-APL GI50, SRB assay, 48 hours exposure): 47.8 nM
CC50 (HeLa-APL; Homo sapiens, 48 h, read-out: HELA-APL LC50, SRB assay, 48 hours exposure): 257 nM
HELA-APL TGI (HeLa-APL; SRB assay, 48 hours exposure): 1.11E−07
GI50 (SK-MEL-28; Homo sapiens, SK-MEL-28, 48 h, read-out: MEL-28 GI50, SRB assay, 48 hours exposure): 1320 nM
CC50 (SK-MEL-28; Homo sapiens, SK-MEL-28, 48 h): 11800 nM
MEL-28 TGI (SK-MEL-28; SRB assay, 48 hours exposure): 3.64E−06
GI50 (K-562; Homo sapiens, K562, 48 h, read-out: K-562 GI50, SRB assay, 48 hours exposure): 2600 nM
CC50 (K-562; Homo sapiens, K562, 48 h): 26000 nM
K-562 TGI (K-562; SRB assay, 48 hours exposure): 1.73E−05

CSc1nccc(-c2c3c(O)ccnc3n3c(N)nccc23)n1.Cl [Compound 97]
CC50 (LoVo-Dox; Homo sapiens, 48 h): 27700 nM
LOVO-DOX TGI (LoVo-Dox; SRB assay, 48 hours exposure): 1.93E−05
GI50 (LoVo-Dox; read-out: LOVO-DOX GI50, SRB assay, 48 hours exposure): 7510 nM
CC50 (A-549; Homo sapiens, A549, 48 h): 22300 nM
A-549 TGI (A-549; SRB assay, 48 hours exposure): 4.55E−06
GI50 (A-549; read-out: A-549 GI50, SRB assay, 48 hours exposure): 707 nM
DU-145 TGI (DU-145; SRB assay, 48 hours exposure): 3.19E−06
GI50 (DU-145; read-out: DU-145 GI50, SRB assay, 48 hours exposure): 257 nM
CC50 (DU-145; read-out: DU-145 LC50, SRB assay, 48 hours exposure): 12800 nM
CC50 (LoVo; Homo sapiens, LoVo, 48 h): 27700 nM
LOVO TGI (LoVo; SRB assay, 48 hours exposure): 1.27E−05
GI50 (LoVo; read-out: LOVO GI50, SRB assay, 48 hours exposure): 5070 nM
HELA TGI (HeLa; SRB assay, 48 hours exposure): 1.28E−07
GI50 (HeLa; read-out: HELA GI50, SRB assay, 48 hours exposure): 57.6 nM
GI50 (SK-BR-3): 1920 nM
CC50 (SK-BR-3): 23600 nM
SK-BR-3 TGI (SK-BR-3): 7.37E−06
CC50 (IGROV-ET; Homo sapiens, 48 h): 27700 nM
IGROV-ET TGI (IGROV-ET; SRB assay, 48 hours exposure): 8.12E−06
GI50 (IGROV-ET; read-out: IGROV-ET GI50, SRB assay, 48 hours exposure): 1520 nM
CC50 (PANC-1; Homo sapiens, PANC-1, 48 h): 24600 nM
PANC-1 TGI (PANC-1; SRB assay, 48 hours exposure): 9.98E−06
GI50 (PANC-1; read-out: PANC-1 GI50, SRB assay, 48 hours exposure): 4050 nM
CC50 (IGROV-1; Homo sapiens, IGROV-1, 48 h): 27000 nM
IGROV TGI (IGROV-1; SRB assay, 48 hours exposure): 3.10E−06
GI50 (IGROV-1; read-out: IGROV GI50, SRB assay, 48 hours exposure): 93.1 nM
LN-caP TGI (LNCaP; SRB assay, 48 hours exposure): 2.88E−07
GI50 (LNCaP; read-out: LN-caP GI50, SRB assay, 48 hours exposure): 109 nM
CC50 (LNCaP; read-out: LN-caP LC50, SRB assay, 48 hours exposure): 5820 nM
CC50 (HT-29; Homo sapiens, HT-29, 48 h): 18700 nM
HT-29 TGI (HT-29; SRB assay, 48 hours exposure): 4.85E−06
GI50 (HT-29; read-out: HT-29 GI50, SRB assay, 48 hours exposure): 457 nM
HELA-APL TGI (HeLa-APL; SRB assay, 48 hours exposure): 1.77E−07
GI50 (HeLa-APL; read-out: HELA-APL GI50, SRB assay, 48 hours exposure): 78.7 nM
CC50 (HeLa-APL; read-out: HELA-APL LC50, SRB assay, 48 hours exposure): 1850 nM
CC50 (SK-MEL-28; Homo sapiens, SK-MEL-28, 48 h): 18000 nM
MEL-28 TGI (SK-MEL-28; SRB assay, 48 hours exposure): 7.43E−06
GI50 (SK-MEL-28; read-out: MEL-28 GI50, SRB assay, 48 hours exposure): 3080 nM
CC50 (K-562; Homo sapiens, K562, 48 h): 24400 nM
K-562 TGI (K-562; SRB assay, 48 hours exposure): 8.34E−06
GI50 (K-562; read-out: K-562 GI50, SRB assay, 48 hours exposure): 2850 nM

Source: patent US7772241B2, “Variolin derivatives and their use as antitumor agents” (Pharma Mar S.A., priority 2001, dated 2010)
